Data set [1] concerns Mycobacterium tuberculosis H37Rv. As to the kind of experiment: microbe, parasite or virus in culture. The format is cell-based. As to conditions: for activity at 1 µM / activity at 50 µM / activity at 100 µM: 120 h.
The subject of the next data set is electric eel AChE. Details: method as in Joubert et al., 2017 [23]. The conditions noted are these: ref Joubert et al., 2017 [23]; cited from earlier work.
The test system of data set [2] is SH-SY5Y cells. Put plainly: SH-SY5Y cytotoxicity MTT assay. The data set is classed as cell-based, human. As to conditions: 48 h. The method, then: (§1) The human neuroblastoma cell line SH-SY5Y was generously donated by our collaborator at the Division of Molecular Biology and Human Biology, Stellenbosch University, Tygerberg, Cape Town. Cells were cultured in monolayer using Dulbecco Modified Eagles Medium (DMEM, Gibco, Life Technologies Ltd. Carlsbad, CA, USA) supplemented with 10% fetal bovine serum (FBS, Gibco, Life Technologies Ltd.) and 1% 100 U/mL penicillin and 100 μg/mL streptomycin (Lonza Group Ltd., Basel, Switzerland). Cells were grown at 37 °C, in a humidified atmosphere at 5% CO2. Media were replaced every two to three days and cells were sub-cultured by splitting with trypsin (Lonza Group Ltd.).
(§2) The standard MTT assay which measures cell metabolic activity was used to determine cytotoxicity of CM14, CM15 and CM9 as described by Mosmann. Briefly, SH-SY5Y cells were plated in flat bottom 96 well plates in growth medium as stated in Section 3.7.1 at a density of 7500 cells/well. Cells were allowed to adhere to the plate surface for 24 h and used media were replaced with fresh media containing test compounds at 10 µM, 50 µM and 100 µM. Vehicle control cells were treated with DMSO (solvent for dissolving test compounds) at a concentration similar to the amount contained in the highest concentration of test compounds. After 48 h, 10 µL of MTT solution (5 mg/mL) was added to each well and incubated for 4 h and the purple formazan formed was solubilized with 100 µL DMSO and plates were read spectrophotometrically to determine absorbance at 570 nm using a BMG Labtech POLARStar Omega multimodal plate reader.

Data set [3] can be described thus: SH-SY5Y cytotoxicity MTT assay. The format is cell-based, human. The conditions noted are these: human, SH-SY5Y neuroblastoma cells, MTT, read-out: CC 50% SH-SY5Y (range where 50% cell toxicity will be observed). As for the experimental part:
as §1, §2

The target of data set [4] is equine butyrylcholinesterase (BuChE). Details: method as in Joubert et al., 2017 [23]. As to conditions: ref Joubert et al., 2017 [23]; cited from earlier work.
In data set [5] the test system is SH-SY5Y cells. As to the kind of experiment: MPP+-induced cytotoxicity in SH-SY5Y cells (neuroprotection). The conditions noted are these: 1000 μM MPP+ for 48 h.
Data set [6] can be described thus: Chinese hamster ovary cell cytotoxicity MTT assay. As to conditions: for CC50 at 44 h: CHO cells. As for the experimental part:
Cytotoxicity was evaluated on CHO cells utilizing a standard 3-[4,5-dimethylthiazol-2-yl]-2,5-diphenyl tetrazolium bromide (MTT) assay. The MTT is a yellow tetrazolium salt that is reduced to purple formazan in the presence of living cells. This reduction reaction was used to measure growth and chemosensitivity. The test samples were tested in triplicate on one occasion. Cells were seeded in microtiter plates at a density of 10^5 cells/mL and incubated for 24 h prior to exposure. The test samples were prepared to a 20 mg/mL stock solution in 10% methanol or 10% DMSO and were tested as a suspension if not properly dissolved. Test compounds were stored at −20 °C until use, and administered in volumes of 100 µL to the plated cells. Emetine was used as the reference drug in all experiments. […] Plates were developed after 44 h of exposure to the drug by the addition of a solution of MTT. After four hours, further incubation at 37 °C the supernatant was removed from the cells via suction and DMSO was added to each well to dissolve the reduced dye crystals. […] The amount of formazan produced in wells containing untreated cells only and growth medium only represent 100% survival and 0% survival respectively, and the amount in each treatment well was converted to a survival percentage relative to these two extremes. The IC50 values were obtained from full dose-response curves, using a non-linear dose-response curve fitting analysis via GraphPad Prism v.4 software.

In data set [7] the test system is M. tuberculosis H37Rv:pCHERRY3. As to the kind of experiment: microbe, parasite or virus in culture. The format is cell-based. As to conditions: Mycobacterium tuberculosis.
Data set [8] deals with M. tuberculosis H37RvMA pMSP12:GFP. As to the kind of experiment: microbe, parasite or virus in culture. The data set is classed as cell-based. The conditions noted are these: Mycobacterium tuberculosis.
[9] abbreviates: read-out: % M. tuberculosis Growth, Day 5.
The mark [10] stands for this setting: 1 µM compound, day 5, read-out: % M. tuberculosis Growth, Day 5.
The mark [11] stands for this setting: 50 µM compound, day 5, read-out: % M. tuberculosis Growth, Day 5.
[12] abbreviates: 100 µM compound, day 5, read-out: % M. tuberculosis Growth, Day 5.

We go through 19 compounds from paper PMC6151660 (Molecules : A Journal of Synthetic Chemistry and Natural …, 2017).

Converted amounts (≈) assume the structure as drawn. Like-named read-outs stand apart in the source and are kept apart here.

As to `O=c1ccc2ccc(OCc3ccccc3)cc2o1` [CM16], in data set [1] (setting [9]), the activity at 1 µM was 97.5%, the activity at 50 µM turned out to be 72.7% and the activity at 100 µM was found to be 50.7%.
As to `Cc1c(Cl)c(=O)oc2cc(OCc3ccc(Br)cc3)ccc12` [CM3], the activity at 1 µM in data set [1] (setting [10]) was 97.8%. Besides, in data set [1] (setting [11]), the activity at 50 µM was 96.1%. The activity at 100 µM in data set [1] (setting [12]) turned out to be 92.9%.
With `O=c1cc(C(F)(F)F)c2ccc(OCc3ccc(Br)cc3)cc2o1` [CM5], in data set [1] (setting [10]), the activity at 1 µM came out at 107%. Moreover, in data set [1] (setting [11]), the activity at 50 µM is 65%. In addition, the activity at 100 µM in data set [1] (setting [12]) turned out to be 56.1%.
Turning to `Cc1c(C#N)c(=O)oc2cc(OCCN3CCC(Cc4ccccc4)CC3)ccc12` [CM9], the IC50 in the data set with electric eel AChE is 9.1 µM; in data set [4], 5.9 µM. Moreover, the activity at 1 µM in data set [1] (setting [10]) stood at 92.8%. Further, the activity at 50 µM in [1] (setting [11]) amounted to 7.75%. In addition, the activity at 100 µM in data set [1] (setting [12]) came to 6.19%. Besides, the “effect on viability of SH-SY5Y cells” value in the data set with SH-SY5Y cells [2] (10 µM) is on record as “did not significantly affect”; with SH-SY5Y cells [2] (50 µM and 100 µM), “significantly (p < 0.001) affected”. In addition, the CC50 at 48 h in data set [3] lay within 10 to 50 µM. In the data set with SH-SY5Y cells [5] (1 µM compound, untreated control 100%), the “cell survival restored after MPP+ exposure” value was 81.86 ± 3.72%. Also, the “maximal cytoprotection (cell viability) after MPP+ exposure” value in the data set on SH-SY5Y cells [5] (10 µM compound) was determined as 92.2 ± 4.18%.
In turn, `Cc1c(Cl)c(=O)oc2cc(OCCN3CCC(Cc4ccccc4)CC3)ccc12` [CM8] returned a CC50 at 44 h in [6] of 33 µM. Further, the IC50 in the data set on electric eel AChE is 31.3 µM; in data set [4], 1.27 µM. The activity at 1 µM in data set [1] (setting [10]) was 93.6%. In data set [1] (setting [11]), the activity at 50 µM amounted to 5.69%. Further, in [1] (setting [12]), the activity at 100 µM is 4.62%. For the same compound, the MIC90 in data set [7] turned out to be 40.5 µM (≈ 16.7 µg/mL); in data set [8], 19.6 µM (≈ 8.07 µg/mL). The figures for the MIC99 in data set [7] and in [8] were 44.1 µM (≈ 18.2 µg/mL) and 25.2 µM (≈ 10.4 µg/mL), respectively.
Take `CO[C@H]1/C=C/O[C@@]2(C)Oc3c(C)c(O)c4c(O)c(c(/C=N/N5CCN(C)CC5)c(O)c4c3C2=O)NC(=O)/C(C)=C\C=C\[C@H](C)[C@H](O)[C@@H](C)[C@@H](O)[C@@H](C)[C@H](OC(C)=O)[C@@H]1C` [RIF, rifampicin, reference compound]: the inhibition at 6 µM in data set [1] (read-out: inhibition of bacterial growth) was determined as 100%. Also, the MIC in data set [8] worked out at 0.0274 µM (≈ 0.0225 µg/mL).
As to `CC[C@H]1CN2CCc3cc(OC)c(OC)cc3[C@@H]2C[C@@H]1C[C@H]1NCCc2cc(OC)c(OC)cc21` [Emetine, reference compound], the CC50 in data set [6] (Chinese hamster) was found to be 0.06 µM.
For the compound `C[n+]1ccc(-c2ccccc2)cc1` [MPP^+, 1-methyl-4-phenyl pyridinium, reference compound], the “cell viability after MPP+ without test compound” value with SH-SY5Y cells [5] was 51.42 ± 3.18%.
In the case of `Cc1cc(=O)oc2cc(OCCN3CCC(Cc4ccccc4)CC3)ccc12` [CM7], in data set [1] (setting [10]), the activity at 1 µM was 95.1%. In addition, in [1] (setting [11]), the activity at 50 µM worked out at 29.5%. Besides, in data set [1] (setting [12]), the activity at 100 µM was 8.18%.
In the case of `O=c1ccc2ccc(OCCN3CCC(Cc4ccccc4)CC3)cc2o1` [CM6], the activity at 1 µM in data set [1] (setting [10]) was determined as 98.2%. For the same compound, the activity at 50 µM in [1] (setting [11]) worked out at 52.7%. The activity at 100 µM in data set [1] (setting [12]) amounted to 15.4%.
With `Cc1cc(=O)oc2cc(OCCN3CCN(Cc4ccc(Br)cc4)CC3)ccc12` [CM12], the CC50 at 44 h in data set [6] stood at 15.5 µM. The IC50 with electric eel AChE is 12.8 µM; in data set [4], 9.7 µM. The activity at 1 µM in data set [1] (setting [10]) worked out at 95.2%. Moreover, the activity at 50 µM in data set [1] (setting [11]) is 4.35%. In addition, the activity at 100 µM in [1] (setting [12]) stood at 3.93%. For the same compound, the MIC90 stood at 40.9 µM (≈ 18.7 µg/mL) in data set [7] and 14 µM (≈ 6.4 µg/mL) in data set [8]. For the same compound, the values for the MIC99 in data set [7] and in data set [8] were 50.4 µM (≈ 23.1 µg/mL) and 29.7 µM (≈ 13.6 µg/mL), respectively.
On to `Cc1c(C#N)c(=O)oc2cc(OCc3ccccc3)ccc12` [CM19], for which, in data set [1] (setting [10]), the activity at 1 µM came out at 98.3%. The activity at 50 µM in data set [1] (setting [11]) turned out to be 66.9%. Further, the activity at 100 µM in [1] (setting [12]) was found to be 55.4%.
As to `Cc1c(Cl)c(=O)oc2cc(OCCN3CCN(Cc4ccc(Br)cc4)CC3)ccc12` [CM13], the activity at 1 µM in data set [1] (setting [10]) was 97%. For the same compound, in data set [1] (setting [11]), the activity at 50 µM was 42.5%. The activity at 100 µM in data set [1] (setting [12]) was found to be 32.1%.
Take `Cc1c(C#N)c(=O)oc2cc(OCc3ccc(Br)cc3)ccc12` [CM4]: the activity at 1 µM in data set [1] (setting [10]) is 95.3%. Also, the activity at 50 µM in data set [1] (setting [11]) was found to be 44.6%. Moreover, the activity at 100 µM in [1] (setting [12]) worked out at 33.5%.
For `Cc1c(Cl)c(=O)oc2cc(OCc3ccccc3)ccc12` [CM18], in that order: 97.3%, 87.9% and 75.5%.
On to `O=c1ccc2ccc(OCc3ccc(Br)cc3)cc2o1` [CM1], for which the activity at 1 µM in data set [1] (setting [10]) is 96.3%. The activity at 50 µM in data set [1] (setting [11]) turned out to be 79.8%. In addition, the activity at 100 µM in data set [1] (setting [12]) came to 63.6%.
Consider `Cc1cc(=O)oc2cc(OCc3ccccc3)ccc12` [CM17], for which, in [1] (setting [9]), the activity at 1 µM turned out to be 97.6%, the activity at 50 µM was determined as 28.6% and the activity at 100 µM is 19.8%.
Regarding `Cc1cc(=O)oc2cc(OCc3ccc(Br)cc3)ccc12` [CM2], in data set [1] (setting [10]), the activity at 1 µM was 90%. In addition, the activity at 50 µM in data set [1] (setting [11]) was found to be 40.9%. In addition, the activity at 100 µM in data set [1] (setting [12]) was 33.2%.
`O=c1ccc2ccc(OCCN3CCN(Cc4ccc(Br)cc4)CC3)cc2o1` [CM11]: the activity at 1 µM in [1] (setting [10]) was 95.2%. Further, the activity at 50 µM in data set [1] (setting [11]) came to 7.05%. The activity at 100 µM in data set [1] (setting [12]) was 4.46%.
